Experiments:
U-937 cells [1] = experiment: Growth inhibition test (trypan blue exclusion); assay type: cell-based, human
Protocol: U-937 cells, optioned from Korea Cell Line Bank, was cultured in RPMI 1640 medium (Sigma Co., R-6504) supplemented with 10% fetal bovine serum (FBS). The medium was exchanged every 5 day by 70%. U-937 cells were inoculated into a cell culture dish at concentration of 2×10^5 cells/ml. Then decursin added into the dish at concentration of 10^−8˜10^−6M, then the cells were cultured for 4 days. Trypan blue exclusion test was performed to determine the number of live cells using a hemacytometer, and the percentage of cancer-cell growth inhibition was calculated. Then, the differentiation was induced by treating with 10^−2M diluted ethanol solution containing various amount of decursin in the medium.

ICR mice [2] = experiment: BUN and MDA in blood and MDA in renal tissue, alloxan-treated mice; assay type: in vivo; settings: alloxan 75 mg/kg i.v. + decursin 50 mg/kg orally for 10 days
Protocol: (§1) 2 days after ICR mice were given alloxan (75 mg/kg, i.v.), their glucose levels at fasting were measured to select high-glucose mice. The high-glucose mice were divided into two groups; physiological saline solution was given to one group, while decursin was orally administered to the other group at a dose of 50 mg/kg for 10 days. The alloxan-free group was also orally given physiological saline solution for 10 days. The body weighs were checked periodically, together with urinary tests. To isolate their sera and kidney, mice were slightly anesthetized with ether and their abdomens were dissected. The blood samples were collected from heart to isolate the sera. The kidney was perfused with 0.9% NaCl and isolated after removal of the blood. Then the weight of right kidney was measured. Further, to measure the protein amount from the kidney tissues, these tissues were assayed according to the Bradford method using Bio-Rad protein assay kit in the presence of bovine serum albumin as a reference standard. To measure the MDA in the kidney tissues, 0.4 ml of 10% sodium dodecylsulfate was added to 0.5 ml of 10% kidney-tissue homogenization solution and left in water bath at 37° C. for 30 minutes; With the subsequent addition of 0.1N-HCl (2 ml) and 0.67% TBA (1 ml), the mixture was voltexed and left in boiling water bath for 30 minutes. The mixture was further cooled in ice bath for 2˜3 minutes to stop the reaction. Then 2 ml of n-butanol was added to the mixture, stirred well and centrifuged at 3000 rpm for 10 minutes. The supernatant was collected to measure the absorbance at 532 nm. 10 μg/ml tetraethoxypropane (TEP) was employed as a reference standard. To measure the MDA in sera, 0.8% thiobarbituric acid (TBA) was added to 0.5 ml of sera and left in boiling water bath for 30 minutes. The mixture was further cooled in ice bath for 2˜3 minutes to stop the reaction. The supernatant was collected to measure the absorbance at 532 nm. 10 μg/ml TEP was employed as a reference standard.
Mice were orally given decursin at a dose of 50 mg/kg for 10 days continuously. Then various parameters such as BUN and MDA in the blood as a marker of renal failure were measured, together with urinary test. When […] (table 4), the BUN value of single alloxan-treated group, 17.4±3.7 mg/dl was recovered to the normal level (4.8±0.6 mg/dl) by the treatment of decursin. The MDA value of single alloxan-treated group, 0.51±0.07, was reduced to 0.36±0.03 by the treatment of decursin, which was similar to a normal control group. Thus it was noted that the damage in the kidney was completely recovered. Since the reduction of both MDA values in the blood and kidney tissues may be clinically reasonable and desirable, the MDA value in the kidney tissues was measured. As a result, the MDA value in the kidney tissues of a single alloxan-treated group, 13.24±5.93, was reduced to 5.63±0.99 by the treatment of decursin, which was lower than that of normal control group (8.44±1.01).

[3] = Body weight, alloxan-treated mice; assay type: in vivo; settings: ICR mice, alloxan + decursin 50 mg/kg orally for 10 days
Protocol: 2 days after ICR mice were given alloxan (75 mg/kg, i.v.), their glucose levels at fasting were measured to select high-glucose mice. The high-glucose mice were divided into two groups; physiological saline solution was given to one group, while decursin was orally administered to the other group at a dose of 50 mg/kg for 10 days. The alloxan-free group was also orally given physiological saline solution for 10 days. The body weighs were checked periodically, together with urinary tests. To isolate their sera and kidney, mice were slightly anesthetized with ether and their abdomens were dissected. The blood samples were collected from heart to isolate the sera. The kidney was perfused with 0.9% NaCl and isolated after removal of the blood. Then the weight of right kidney was measured. Further, to measure the protein amount from the kidney tissues, these tissues were assayed according to the Bradford method using Bio-Rad protein assay kit in the presence of bovine serum albumin as a reference standard. […] The supernatant was collected to measure the absorbance at 532 nm. […] The supernatant was collected to measure the absorbance at 532 nm. […]

normal cells (LLC-PK1) = experiment: Cytotoxicity test on normal cells; assay type: cell-based; settings: 3 days
Protocol: To determine the cytotoxicity of decursin on normal cells, they were sub-cultured in a medium-199 containing, 3% fetal bovine serum (FBS), penicillin (100 U/ml) and streptomycin (100 μg/ml) every 3 to 4 day. Then cells were treated with trypsin to prepare a cell suspension. 1 ml of the cell suspension was seeded on 24-well plate at a concentration of 2×10^5 in cells/ml an d attached to the medium for one day. After the supernatant was removed, 1 ml of decursin was added to the cell culture medium at appropriate concentrations and incubated for 3 days to count the cell numbers.

ICR mice [4] = experiment: Urinary test, alloxan-treated mice; assay type: in vivo; settings: Alloxan + decursin group (50 mg/kg orally, 10 days)
Protocol: as §1

U-937 cells [5] = experiment: Esterase activity test: α-naphthyl acetate esterase; assay type: cell-based, human; settings: percentage of cells showing activity
Protocol: To determine α-naphthyl acetate esterase activity in the esterase activity test, the cultured solution of U-937 cells was pelleted by centrifugation at 2000 rpm for 5 minutes, followed by the addition of 100 μl PBS to prepare a cell-concentrated solution. A drop of the cell solution was put on a slide glass and dried for more than 1 hour. Then 40 ml of deionized water was preheated at 37° C. 1 ml of […] solution was mixed with 1 ml of Fast Blue BB base solution and left for 2 minutes. The mixture, being turned to yellow color with thick brown, was added to 40 ml of the preheated deionized water. After the addition of 5 ml of TRIZMAL TM 7.6 buffer solution (Sigma Co. 870-2) and 1 ml of α-naphthyl acetate solution, the resulting solution, which was turned to green color, was poured into a petri dish. The cells on a slide glass were fixed with citrate-acetone-formaldehyde solution (CAF solution) at room temperature. The cells were soaked in the previously prepared solution and incubated at 37° C. for 30 minutes at a dark place. The cells were completely washed with deionized water for more than 2 minutes and counterstained with hematoxylin solution for 2 minutes, washed with tap water and dried in the air. After completely dried, the cells were observed under a microscope to determine the blackish cell numbers.
Thus it was considered that the cells were differentiated into macrophage.like cells by the action of decursin.

CC(C)=CC(=O)O[C@H]1Cc2cc3ccc(=O)oc3cc2OC1(C)C [decursin]
Growth inhibition rate (%) (U-937 cells [1]; 1 × 10^−7M, 4 days (96 hours)): 42.0 ± 6.4%
inhibition at 1 µM (U-937 cells [1]; Homo sapiens, U-937, 96 h, 1 × 10^−6M, 4 days (96 hours), read-out: Growth inhibition rate (%)): 52 ± 2.8%
inhibition at 0.1 µM (U-937 cells [1]; Homo sapiens, U-937, 96 h, 1 × 10^−7M, 4 days (96 hours), read-out: Growth inhibition rate (%)): ~33%
inhibition at 0.01 µM (U-937 cells [1]; Homo sapiens, U-937, 96 h, 1 × 10^−8M, 4 days (96 hours), read-out: Growth inhibition rate (%)): 31 ± 7.8%
inhibition at 0.5 µM (U-937 cells [1]; Homo sapiens, U-937, 96 h, 5 × 10^−7M, 4 days (96 hours), read-out: Growth inhibition rate (%)): 48 ± 7.1%
inhibition at 0.05 µM (U-937 cells [1]; Homo sapiens, U-937, 96 h, 5 × 10^−8M, 4 days (96 hours), read-out: Growth inhibition rate (%)): 35.5 ± 7.4%
growth inhibition rate (inhibitory effect) (U-937 cells [1]; after 96 hours, concentration of 10^−8˜10^−6M): 30-50%
BUN (ICR mice [2]): 4.8 ± 0.6 mg/dL
MDA in blood (ICR mice [2]): 0.36 ± 0.03 µg/mL
MDA in renal tissue (ICR mice [2]): 5.63 ± 0.99 µg/g
weight loss of the alloxan-treated group [3]: significantly reduced
Growth inhibition rate (%) (normal cells (LLC-PK1); 1 × 10^−6M): 0.0 ± 0.0%
Growth inhibition rate (%) (normal cells (LLC-PK1); 1 × 10^−7M): 0.0 ± 0.0%
Growth inhibition rate (%) (normal cells (LLC-PK1); 1 × 10^−8M): 0.0 ± 0.0%
Growth inhibition rate (%) (normal cells (LLC-PK1); 5 × 10^−7M): 0.0 ± 0.0%
Growth inhibition rate (%) (normal cells (LLC-PK1); 5 × 10^−8M): 0.0 ± 0.0%
Urinary test Bilirubin: count in category + (ICR mice [4]): 2
Urinary test Bilirubin: count in category − (ICR mice [4]): 8
Urinary test Glucose: count in category + (ICR mice [4]): 1
Urinary test Glucose: count in category − (ICR mice [4]): 9
Urinary test Ketone: count in category − (ICR mice [4]): 10
Urinary test Nitrite: count in category − (ICR mice [4]): 10
Urinary test Occult blood: count in category + (ICR mice [4]): 2
Urinary test Occult blood: count in category − (ICR mice [4]): 8
Urinary test Protein: count in category − (ICR mice [4]): 10
Urinary test Specific gravity: count in category − (ICR mice [4]): 10
Urinary test Urobilinogen: count in category + (ICR mice [4]): 1
Urinary test Urobilinogen: count in category − (ICR mice [4]): 9
Urinary test pH: count in category − (ICR mice [4]): 10
α-Naphtylacetate esterase Activity (%) (U-937 cells [5]): 83%
α-Naphtylacetate esterase Activity (%) (U-937 cells [5]; listed as Decursin): 83.3 ± 3.0%

From US6525089B1, “Pharmaceutical composition containing decursin” (Binex Co., Ltd., priority 1998, dated 2003)
